Test results as given in PMC7564829, “Potent Broad-Spectrum Antibacterial Activity of Amphiphilic Peptides against Multidrug-Resistant Bacteria” (Microorganisms, 2020).
Converted amounts (≈) assume the structure as drawn. Read-outs that look alike come from different tables or passages of the source. Ends that are not written are not given here.

What was measured:
E. coli ATCC 25922 = assay: microbe, parasite or virus in culture; type: cell-based
Description: (§1) Experiments were performed with two biological replicates.

[1] = test system: MDR E. coli B2 (mcr-1 + blaNDM-5); assay: microbe, parasite or virus in culture; type: cell-based
Description: as §1

[2] = test system: S. aureus 215 (cfr + LZD^R); assay: microbe, parasite or virus in culture; type: cell-based; settings: 18 h
Description: as §1

S. aureus ATCC 29213 = assay: microbe, parasite or virus in culture; type: cell-based
Description: as §1

[3] = test system: S. enteritidis ATCC 13076; assay: microbe, parasite or virus in culture; type: cell-based
Description: as §1

MRSA T144 = assay: MIC/MBC, broth micro-dilution; type: cell-based, Staphylococcus aureus
Description: as §1

E. coli 1F28 (tet(X4)) = assay: MIC/MBC, broth micro-dilution; type: cell-based
Description: as §1

E. coli B3-1 (tet(X4)) = assay: MIC/MBC, broth micro-dilution; type: cell-based
Description: as §1

E. faecalis A4 (VRE) = assay: MIC/MBC, broth micro-dilution; type: cell-based
Description: as §1

E. coli 1A34 = assay: MIC, tigecycline-resistant clinical isolate; type: cell-based
Description: as §1

E. coli 1C1 = assay: MIC, tigecycline-resistant clinical isolate; type: cell-based
Description: as §1

E. coli 1F16 = assay: MIC, tigecycline-resistant clinical isolate; type: cell-based
Description: as §1

E. coli 1F31 = assay: MIC, tigecycline-resistant clinical isolate; type: cell-based
Description: as §1

E. coli 1N28 = assay: MIC, tigecycline-resistant clinical isolate; type: cell-based
Description: as §1

E. coli 1N31 = assay: MIC, tigecycline-resistant clinical isolate; type: cell-based
Description: as §1

E. coli 2A19 = assay: MIC, tigecycline-resistant clinical isolate; type: cell-based
Description: as §1

E. coli 2W25 = assay: MIC, tigecycline-resistant clinical isolate; type: cell-based
Description: as §1

Shigella 1F25 = assay: MIC, tigecycline-resistant clinical isolate; type: cell-based; settings: Shigella 1F25, feces, broth micro-dilution
Description: as §1

RBCs = settings: cited from earlier work
[4] = ref [19]; cited from earlier work
Source text: Antimicrobial peptides (AMPs), also named host defense peptides, are originated from various organisms and are important immune modulation molecules that protect the host from the invading pathogens. […] However, the high cost of peptides, the lability to proteases, less bioavailable and nonspecific toxicity still hinder these AMPs in clinical practice. A more rational design of AMPs contributes to improving their stability and antibacterial activity. ...

[5] = Hydrophobicity by RP-HPLC (percent acetonitrile at elution); type: physicochemical; settings: acetonitrile in water, 0.1% (v/v) TFA, higher percent = higher hydrophobicity
Description: All peptides used in this study were synthesized by GL Biochem (Shanghai, China) using a solid phase peptide synthesis (SPPS) method, and their accurate molecular weights were determined by matrix-assisted laser desorption/ionization time-of-flight mass spectrometry (MALDI-TOF MS). The peptide purity (>95%) and retention time were determined by reversed-phase high-performance liquid chromatography (HPLC).
A collection of tryptophan-rich linear peptides on the basis of MP196 (RWRWRW-NH2) was designed by increasing peptide length or positive charge or hydrophobicity, replacing amino acids and/or N-terminal acetylation (Table 1). These peptides were synthesized via solid-phase peptide synthesis (SPPS), purified by reverse-phase high-performance liquid chromatography (RP-HPLC) (Figure S1) and validated by matrix-assisted laser desorption/ionization time-of-flight mass spectrometry (MALDI-TOF MS) (Figure S2). […] All engineered peptides belong to cationic AMPs, with 3 or 6 net charges. The percentage of acetonitrile at RP-HPLC elution was regarded as a relative measure of peptides’ hydrophobicity. […] The hydrophobicity order was listed as follows: WRK-12 > WL-9 > WR-6 > WV-9 > KW-6 > WKK-12 > WR-12 > MP196 > WK-6.

[6] = S. aureus 215 (cfr + LZD^R), broth micro-dilution CLSI 2018, MHB, 37 °C
[7] = MDR B2 (mcr-1 + blaNDM-5, 18 h)
[8] = Escherichia coli, ATCC25922, 18 h
[9] = Escherichia coli, Table 2, E. coli B2 (mcr-1 + blaNDM-5), broth micro-dilution CLSI 2018, MHB, 18 h, 37 °C, read-out: MIC
[10] = Staphylococcus aureus, ATCC29213, 18 h
[11] = Staphylococcus aureus, MRSA T144, broth micro-dilution CLSI 2018, MHB, 18 h, 37 °C, read-out: MIC
[12] = Escherichia coli, E. coli 1F28 (tet(X4)), broth micro-dilution CLSI 2018, MHB, 18 h, 37 °C, read-out: MIC
[13] = Escherichia coli, E. coli B3-1 (tet(X4)), broth micro-dilution CLSI 2018, MHB, 18 h, 37 °C, read-out: MIC
[14] = Enterococcus faecalis, VRE, 18 h

colistin gave an MIC (E. coli ATCC 25922; E. coli ATCC 25922, broth micro-dilution CLSI 2018, MHB, 18 h, 37 °C) of 0.5 µg/mL, an MIC ([1]; Table 2, E. coli B2 (mcr-1 + blaNDM-5), broth micro-dilution CLSI 2018, MHB, 18 h, 37 °C) of 8 µg/mL and an MIC [2, 6] of 64 µg/mL. The MIC (S. aureus ATCC 29213; S. aureus ATCC 29213, broth micro-dilution CLSI 2018, MHB, 18 h, 37 °C) was 16 µg/mL, the MIC ([3]; S. enteritidis ATCC 13076, broth micro-dilution CLSI 2018, MHB, 18 h, 37 °C) was 0.25 µg/mL and the MIC (MRSA T144; MRSA T144, broth micro-dilution CLSI 2018, MHB, 18 h, 37 °C) was 128 µg/mL. The MIC (E. coli 1F28 (tet(X4)); E. coli 1F28 (tet(X4)), broth micro-dilution CLSI 2018, MHB, 18 h, 37 °C) was 0.25 µg/mL, the MIC (E. coli B3-1 (tet(X4)); E. coli B3-1 (tet(X4)), broth micro-dilution CLSI 2018, MHB, 18 h, 37 °C) was 0.25 µg/mL and the MIC (E. faecalis A4 (VRE); E. faecalis A4 (VRE), broth micro-dilution CLSI 2018, MHB, 18 h, 37 °C) was 128 µg/mL.

Compound WKVWKVWKV-NH2 [WV-9] has an MIC [1, 7] greater than 64 µg/mL.

Work on KWKWKW-NH2 [KW-6] yielded an MIC [1, 7] greater than 64 µg/mL.

Work on WKWKWK-NH2 [WK-6] yielded an MIC [1, 7] greater than 64 µg/mL.

With WRWRWR-NH2 [WR-6] the MIC [1, 7] was greater than 64 µg/mL.

With WRLRWRLRWRLR-NH2 [WR-12] the MIC [1, 7] was 2 µg/mL.

WRLWRLWRL-NH2 [WL-9] gave an MIC [1, 7] of 8 µg/mL.

Compound `CN(C)c1cc(NC(=O)CNC(C)(C)C)c(O)c2c1C[C@H]1C[C@H]3[C@H](N(C)C)C(O)=C(C(N)=O)C(=O)[C@@]3(O)C(O)=C1C2=O` [TIG, tigecycline, reference compound] has an MIC (E. coli ATCC 25922; [8]) of 0.125 µg/mL (≈ 0.213 µM), an MIC [1, 9] of 2 µg/mL and an MIC ([2]; Staphylococcus aureus) of 1 µg/mL (≈ 1.71 µM). For the same compound, the MIC (S. aureus ATCC 29213; [10]) was 0.125 µg/mL (≈ 0.213 µM), the MIC ([3]; Salmonella enterica, 18 h) was 0.125 µg/mL (≈ 0.213 µM) and the MIC (MRSA T144; [11]) was 2 µg/mL (≈ 3.41 µM). The MIC (E. coli 1F28 (tet(X4)); [12]) was 32 µg/mL (≈ 54.6 µM), the MIC (E. coli B3-1 (tet(X4)); [13]) was 32 µg/mL (≈ 54.6 µM) and the MIC (E. faecalis A4 (VRE); [14]) was 0.125 µg/mL (≈ 0.213 µM). It also gave an MIC (E. coli 1A34; Escherichia coli, E. coli 1A34, anal swab, tigecycline-resistant clinical isolate, broth micro-dilution, read-out: MIC) of 16 µg/mL (≈ 27.3 µM), an MIC (E. coli 1C1; Escherichia coli, E. coli 1C1, dust, tigecycline-resistant clinical isolate, broth micro-dilution, read-out: MIC) of 32 µg/mL (≈ 54.6 µM) and an MIC (E. coli 1F16; Escherichia coli, E. coli 1F16, feces, tigecycline-resistant clinical isolate, broth micro-dilution, read-out: MIC) greater than 64 µg/mL. The MIC (E. coli 1F31; Escherichia coli, E. coli 1F31, tigecycline-resistant clinical isolate, broth micro-dilution, read-out: MIC) was 32 µg/mL (≈ 54.6 µM), the MIC (E. coli 1N28; Escherichia coli, E. coli 1N28, nasal swab, tigecycline-resistant clinical isolate, broth micro-dilution, read-out: MIC) was 32 µg/mL (≈ 54.6 µM) and the MIC (E. coli 1N31; Escherichia coli, E. coli 1N31, tigecycline-resistant clinical isolate, broth micro-dilution, read-out: MIC) was 128 µg/mL (≈ 219 µM). The MIC (E. coli 2A19; Escherichia coli, E. coli 2A19, tigecycline-resistant clinical isolate, broth micro-dilution, read-out: MIC) was 8 µg/mL (≈ 13.7 µM), the MIC (E. coli 2W25; Escherichia coli, E. coli 2W25, water, tigecycline-resistant clinical isolate, broth micro-dilution, read-out: MIC) was 64 µg/mL (≈ 109 µM) and the MIC (Shigella 1F25; read-out: MIC) was 8 µg/mL (≈ 13.7 µM).

For RWRWRW-NH2 [MP196], the MIC [1, 7] is listed as greater than 64 µg/mL, the “hemolysis to RBCs” value (RBCs) is listed as “high hemolysis” and the in vivo stability [4] is listed as “low in vivo stability”.

In the case of `CC1(C)S[C@@H]2[C@H](NC(=O)[C@H](N)c3ccccc3)C(=O)N2[C@H]1C(=O)O` [AMP, ampicillin], the MIC (E. coli ATCC 25922; Escherichia coli, ATCC25922, E. coli ATCC 25922, broth micro-dilution CLSI 2018, MHB, 18 h, 37 °C, read-out: MIC) is reported as 8 µg/mL (≈ 22.9 µM), the MIC [1, 9] is reported as greater than 128 µg/mL and the MIC ([2]; Staphylococcus aureus) is reported as 64 µg/mL (≈ 183 µM). The MIC (S. aureus ATCC 29213; Staphylococcus aureus, ATCC29213, S. aureus ATCC 29213, broth micro-dilution CLSI 2018, MHB, 18 h, 37 °C, read-out: MIC) was 0.25 µg/mL (≈ 0.715 µM), the MIC ([3]; Salmonella enterica, S. enteritidis ATCC 13076, broth micro-dilution CLSI 2018, MHB, 18 h, 37 °C, read-out: MIC) was 8 µg/mL (≈ 22.9 µM) and the MIC (MRSA T144; [11]) was 32 µg/mL (≈ 91.6 µM). The MIC (E. coli 1F28 (tet(X4)); [12]) was greater than 128 µg/mL, the MIC (E. coli B3-1 (tet(X4)); [13]) was greater than 128 µg/mL and the MIC (E. faecalis A4 (VRE); Enterococcus faecalis, E. faecalis A4 (VRE), broth micro-dilution CLSI 2018, MHB, 18 h, 37 °C, read-out: MIC) was 32 µg/mL (≈ 91.6 µM).

Compound `CN[C@H](CC(C)C)C(=O)N[C@H]1C(=O)N[C@@H](CC(N)=O)C(=O)N[C@H]2C(=O)N[C@H]3C(=O)N[C@H](C(=O)N[C@H](C(=O)O)c4cc(O)cc(O)c4-c4cc3ccc4O)[C@H](O)c3ccc(c(Cl)c3)Oc3cc2cc(c3O[C@@H]2O[C@H](CO)[C@@H](O)[C@H](O)[C@H]2O[C@H]2C[C@](C)(N)[C@H](O)[C@H](C)O2)Oc2ccc(cc2Cl)[C@H]1O` [VAN, vancomycin] has an MIC (E. coli ATCC 25922; [8]) of 128 µg/mL (≈ 88.3 µM), an MIC ([1]; Escherichia coli, 18 h) of 128 µg/mL (≈ 88.3 µM) and an MIC ([2]; Staphylococcus aureus) of 1 µg/mL (≈ 0.69 µM). For the same compound, the MIC (S. aureus ATCC 29213; [10]) was 0.5 µg/mL (≈ 0.345 µM), the MIC ([3]; Salmonella enterica, 18 h) was 128 µg/mL (≈ 88.3 µM) and the MIC (MRSA T144; Staphylococcus aureus, MRSA, 18 h) was 1 µg/mL (≈ 0.69 µM). The MIC (E. coli 1F28 (tet(X4)); Escherichia coli, 18 h) was 128 µg/mL (≈ 88.3 µM), the MIC (E. coli B3-1 (tet(X4)); Escherichia coli, 18 h) was 64 µg/mL (≈ 44.2 µM) and the MIC (E. faecalis A4 (VRE); [14]) was greater than 128 µg/mL.

Ac-WKVKWKVKWKVK-NH2 [WKK-12] showed an MIC (E. coli ATCC 25922; ATCC 25922, 18 h) of 128 µg/mL, an MIC [1, 7] of 64 µg/mL and an MIC [2, 6] of 64 µg/mL. The MIC (S. aureus ATCC 29213; ATCC 29213, 18 h) was 128 µg/mL, the MIC ([3]; ATCC 13076, 18 h) was 64 µg/mL and the MIC (MRSA T144; T144, 18 h) was 64 µg/mL. It also gave an MIC (E. coli 1F28 (tet(X4)); 1F28 (tet(X4, 18 h))) of 64 µg/mL, an MIC (E. coli B3-1 (tet(X4)); B3-1 (tet(X4, 18 h))) of 64 µg/mL and an MIC (E. faecalis A4 (VRE); A4 (VRE, 18 h)) of 64 µg/mL. It also gave an MIC (E. coli 1A34; 1A34, 4 h) of 64 µg/mL, an MIC (E. coli 1C1; 1C1, 4 h) of 64 µg/mL and an MIC (E. coli 1F16; 1F16, 4 h) of 64 µg/mL. It also gave an MIC (E. coli 1F31; 1F31, 4 h) of 64 µg/mL, an MIC (E. coli 1N28; 1N28, 4 h) of 64 µg/mL and an MIC (E. coli 1N31; 1N31, 4 h) of 64 µg/mL. For the same compound, the MIC (E. coli 2A19; 2A19, 4 h) was 128 µg/mL, the MIC (E. coli 2W25; 2W25, 4 h) was 64 µg/mL and the MIC (Shigella 1F25) was 64 µg/mL. For the same compound, the “H (hydrophobicity, percent of acetonitrile at HPLC elution)” value [5] was 31.424 percent acetonitrile.
